Molecular target: Human TASK-1 channels (Homo sapiens (Human), UniProt O14649)
Assay: Determination of the activity on the TASK-1 channel in Xenopus oocytes (two-microelectrode voltage clamp)
Format: cell-based
Details: for IC50: human TASK-1 expressed in Xenopus oocytes, room temperature, read-out: IC50 value for TASK-1 inhibition
Procedure: Determination of the activity on the TASK-1 channel in Xenopus oocytes
Human TASK-1 channels were expressed in Xenopus oocytes. For this purpose, oocytes were isolated from Xenopus laevis and defoliculated. Subsequently, TASK-1-encoding RNA synthesized in vitro was injected into the oocytes. After two days of TASK-1 protein expression, TASK-1 currents were measured by two-microelectrode voltage clamp. Data were acquired and analyzed using a TEC-10cx amplifier (NPI Electronic, Tamm, Germany) connected to an ITC-16 interface (Instrutech Corp., Long Island, USA) and Pulse software (HEKA Elektronik, Lambrecht, Germany). Oocytes were clamped to −90 mV and TASK-1 mediated currents were measured during 500 ms voltage pulses to 40 mV. Oocytes were continuously superfused with ND96 buffer containing 96 mM sodium chloride, 2 mM potassium chloride, 1.8 mM calcium chloride, 1 mM magnesium chloride, 5 mM 4-(2-hydroxyethyl)-piperazine-1-ethanesulfonic acid (HEPES; pH adjusted to 7.4 with sodium hydroxide). All experiments were performed at room temperature. Test compounds were consecutively added to the bath solution at rising concentrations. Compound effects were calculated as the percentage inhibition of TASK-1 control current before compound addition. IC50 values were obtained by fitting the data to the general dose-response equation.

Human TASK-1 channels, sequence (O14649 whole entry): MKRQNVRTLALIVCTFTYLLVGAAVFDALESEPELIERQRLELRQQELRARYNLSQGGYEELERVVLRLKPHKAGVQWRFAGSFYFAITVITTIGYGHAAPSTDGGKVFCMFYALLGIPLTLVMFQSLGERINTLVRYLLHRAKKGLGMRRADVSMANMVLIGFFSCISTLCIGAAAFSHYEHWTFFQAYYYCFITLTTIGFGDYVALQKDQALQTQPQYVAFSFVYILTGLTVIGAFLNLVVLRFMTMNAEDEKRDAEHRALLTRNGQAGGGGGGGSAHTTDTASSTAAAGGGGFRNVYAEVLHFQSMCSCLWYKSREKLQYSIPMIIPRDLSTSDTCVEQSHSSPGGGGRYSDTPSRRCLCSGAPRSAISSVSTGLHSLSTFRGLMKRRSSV

Compound: 3,4-Dihydro-1H-pyrrolo[2,1-c][1,4]oxazine-6,8-dicarboxylic acid 6-[(1H-indol-6-ylmethyl)-amide] 8-[((R)-1-phenyl-propyl)-amide] [16je]
- TASK-1 inhibition [%] at 5 μM (compound concentration 5 μM): 91%

Compound: 3,4-Dihydro-1H-pyrrolo[2,1-c][1,4]oxazine-6,8-dicarboxylic acid 6-{[(R)-1-(4-fluoro-phenyl)-ethyl]-amide} 8-{[(S)-1-(5-methoxy-pyrazin-2-yl)-propyl]-amide} [16dv]
- IC50: 190 nM

Compound: 5,6,7,8-Tetrahydro-indolizine-1,3-dicarboxylic acid 3-[(5-fluoro-pyridin-3-ylmethyl)-amide] 1-[((R)-1-phenyl-propyl)-amide] [16nb]
- IC50: 460 nM

Compound: 6-((S)-2-Methyl-pyrrolidine-1-carbonyl)-3(4-dihydro-1H-pyrrolo[2,1-c][1,4]oxazine-8-carboxylic acid [(R)-1-(2,2-difluoro-benzo[1,3]dioxol-5-yl)-propyl]-amide [16bz]
- IC50: 200 nM

Compound: C[C@H]1CCCN1C(=O)c1cc(C(=O)N[C@H]2CCc3nc(C(F)(F)F)ccc32)c2n1CCOC2 (racemic) [16cu, 6-((S)-2-Methyl-pyrrolidine-1-carbonyl)-3,4-dihydro-1H-pyrrolo[2,1-c][1,4]oxazine-8-carboxylic acid ((S)-2-trifluoromethyl-6,7-dihydro-5H-[1]pyrindin-5-yl)-amide]
- IC50: 9000 nM

Compound: C[C@H]1CCCN1C(=O)c1cc(C(=O)N[C@@H]2CCc3nc(C(F)(F)F)ccc32)c2n1CCOC2 (racemic) [16cv, 6-((S)-2-Methyl-pyrrolidine-1-carbonyl)-3,4-dihydro-1H-pyrrolo[2,1-c][1,4]oxazine-8-carboxylic acid ((R)-2-trifluoromethyl-6,7-dihydro-5H-[1]pyrindin-5-yl)-amide]
- IC50: 900 nM

Compound: C[C@H](NC(=O)c1cc(C(=O)N[C@H](C)c2ccc(F)cc2)n2c1COCC2)c1ncccn1 (racemic) [16dx, 3,4-Dihydro-1H-pyrrolo[2,1-c][1,4]oxazine-6,8-dicarboxylic acid 6-{[(R)-1-(4-fluoro-phenyl)-ethyl]-amide} 8-[((S)-1-pyrimidin-2-yl-ethyl)-amide]]
- IC50: 1200 nM

Compound: C[C@@H](NC(=O)c1cc(C(=O)N[C@H](C)c2ncccn2)c2n1CCOC2)c1ccc(F)cc1 (racemic) [16dy, 3,4-Dihydro-1H-pyrrolo[2,1-c][1,4]oxazine-6,8-dicarboxylic acid 6-{[(R)-1-(4-fluoro-phenyl)-ethyl]-amide} 8-[((R)-1-pyrimidin-2-yl-ethyl)-amide]]
- IC50: 1500 nM

Compound: CC[C@H]1CCCN1C(=O)c1cc(C(=O)N[C@H](CC)c2ccccc2)c2n1CCOC2 (racemic) [16fc, 6-((S)-2-Ethyl-pyrrolidine-1-carbonyl)-3,4-dihydro-1H-pyrrolo[2,1-c][1,4]oxazine-8-carboxylic acid ((R)-1-phenyl-propyl)-amide]
- IC50: 25 nM

Compound: CC[C@@H]1CCCN1C(=O)c1cc(C(=O)N[C@H](CC)c2ccccc2)c2n1CCOC2 (racemic) [16fd, 6-((R)-2-Ethyl-pyrrolidine-1-carbonyl)-3,4-dihydro-1H-pyrrolo[2,1-c][1,4]oxazine-8-carboxylic acid ((R)-1-phenyl-propyl)-amide]
- IC50: 730 nM

Compound: CC[C@@H](NC(=O)c1cc(C(=O)NC(C)c2ncccn2)c2n1CCOC2)c1ccccc1 (mixture of isomers) [16jz, 3,4-Dihydro-1H-pyrrolo[2,1-c][1,4]oxazine-6,8-dicarboxylic acid 6-[((R)-1-phenyl-propyl)-amide] 8-[(1-pyrimidin-2-yl-ethyl)-amide]]
- IC50: 300 nM

Compound: CC[C@@H](NC(=O)c1cc(C(=O)NC(C)c2ncccn2)c2n1CCOC2)c1ccccc1 (mixture of isomers) [16ka, 3,4-Dihydro-1H-pyrrolo[2,1-c][1,4]oxazine-6,8-dicarboxylic acid 6-[((R)-1-phenyl-propyl)-amide] 8-[(1-pyrimidin-2-yl-ethyl)-amide]]
- IC50: 460 nM

Compound: CC(C)[C@@H](NC(=O)c1cc(C(=O)N[C@@H](C)c2ncccn2)c2n1CCOC2)c1ccc(F)cc1 (racemic) [16lr, 3,4-Dihydro-1H-pyrrolo[2,1-c][1,4]oxazine-6,8-dicarboxylic acid 6-{[(R)-1-(4-fluoro-phenyl)-2-methyl-propyl]-amide} 8-[((S)-1-pyrimidin-2-yl-ethyl)-amide]]
- IC50: 360 nM

Compound: CC[C@@H](NC(=O)c1cc(C(=O)N[C@H](CC)c2nccs2)n2c1COCC2)c1ccc(C(F)(F)F)nc1 (racemic) [16pd, 3,4-Dihydro-1H-pyrrolo[2,1-c][1,4]oxazine-6,8-dicarboxylic acid 6-[((R)-1-thiazol-2-yl-propyl)-amide] 8-{[(R)-1-(6-trifluoromethyl-pyridin-3-yl)-propyl]-amide}]
- inhibition at 5 µM (compound concentration 5 μM): 82%

Compound: CCC(NC(=O)c1cc(C(=O)N[C@H](CC)c2ccccc2)c2n1CCOC2)c1cnc(OC)nc1 (single isomer, unassigned) [16hu]
- IC50: 620 nM

Compound: CC[C@@H](NC(=O)c1cc(C(=O)NC(C)c2cnccn2)n2c1COCC2)c1ccccc1 (single isomer, unassigned) [16ie]
- IC50: 260 nM

Compound: CC(NC(=O)c1cc(C(=O)N[C@@H](c2ccc(F)cc2)C(C)C)n2c1COCC2)c1cnccn1 (single isomer, unassigned) [16lp]
- IC50: 550 nM

Compound: CC[C@@H](NC(=O)c1cc(C(=O)NC(C)c2cnccn2)c2n1CCOC2)c1ccc(F)cc1F (single isomer, unassigned) [16pk]
- IC50: 190 nM

Compound: CC[C@@H](NC(=O)c1cc(C(=O)N2CCC[C@@H]2C)n2c1COCC2)c1ccccc1 [16a, 6-((S)-2-Methyl-pyrrolidine-1-carbonyl)-3,4-dihydro-1H-pyrrolo[2,1-c][1,4]oxazine-8-carboxylic acid ((R)-1-phenyl-propyl)-amide]
- IC50: 69 nM

Compound: CC[C@@H](NC(=O)c1cc(C(=O)N2CCC[C@@H]2C)n2c1COCC2)c1ccc(C#N)nc1 [16aa, 6-((S)-2-Methyl-pyrrolidine-1-carbonyl)-3,4-dihydro-1H-pyrrolo[2,1-c][1,4]oxazine-8-carboxylic acid [(R)-1-(6-cyano-pyridin-3-yl)-propyl]-amide]
- IC50: 2400 nM

Compound: CC[C@@H](NC(=O)c1cc(C(=O)N2CCC[C@@H]2C)n2c1COCC2)c1cccc(O)c1 [16ab, 6-((S)-2-Methyl-pyrrolidine-1-carbonyl)-3,4-dihydro-1H-pyrrolo[2,1-c][1,4]oxazine-8-carboxylic acid [(R)-1-(3-hydroxy-phenyl)-propyl]-amide]
- IC50: 2600 nM

Compound: CCC(NC(=O)c1cc(C(=O)N2CCC[C@@H]2C)n2c1COCC2)c1nccs1 (stereo partly drawn) [16ae, 6-((S)-2-Methyl-pyrrolidine-1-carbonyl)-3,4-dihydro-1H-pyrroIo[2,1-c][1,4]oxazine-8-carboxylic acid (1-thiazol-2-yl-propyl)-amide]
- IC50: 670 nM

Compound: C[C@H]1CCCN1C(=O)c1cc(C(=O)NCc2c(F)cc(F)cc2F)c2n1CCOC2 [16af, 6-((S)-2-Methyl-pyrrolidine-1-carbonyl)-3,4-dihydro-1H-pyrrolo[2,1-c][1,4]oxazine-8-carboxylic acid 2,4,6-trifluoro-benzylamide]
- inhibition at 5 µM (compound concentration 5 μM): 78%

Compound: C[C@H]1CCCN1C(=O)c1cc(C(=O)NCc2c(Cl)cccc2Cl)c2n1CCOC2 [16ag, 6-((S)-2-Methyl-pyrrolidine-1-carbonyl)-3,4-dihydro-1H-pyrrolo[2,1-c][1,4]oxazine-8-carboxylic acid 2,6-dichloro-benzylamide]
- inhibition at 5 µM (compound concentration 5 μM): 84%

Reference: US9284333B2, “Fused pyrroledicarboxamides and their use as pharmaceuticals” (SANOFI, priority 2012, dated 2016)
